Molecules are shown by their SMILES.

Chain of PI3Kδ (O00329 whole entry, canonical isoform): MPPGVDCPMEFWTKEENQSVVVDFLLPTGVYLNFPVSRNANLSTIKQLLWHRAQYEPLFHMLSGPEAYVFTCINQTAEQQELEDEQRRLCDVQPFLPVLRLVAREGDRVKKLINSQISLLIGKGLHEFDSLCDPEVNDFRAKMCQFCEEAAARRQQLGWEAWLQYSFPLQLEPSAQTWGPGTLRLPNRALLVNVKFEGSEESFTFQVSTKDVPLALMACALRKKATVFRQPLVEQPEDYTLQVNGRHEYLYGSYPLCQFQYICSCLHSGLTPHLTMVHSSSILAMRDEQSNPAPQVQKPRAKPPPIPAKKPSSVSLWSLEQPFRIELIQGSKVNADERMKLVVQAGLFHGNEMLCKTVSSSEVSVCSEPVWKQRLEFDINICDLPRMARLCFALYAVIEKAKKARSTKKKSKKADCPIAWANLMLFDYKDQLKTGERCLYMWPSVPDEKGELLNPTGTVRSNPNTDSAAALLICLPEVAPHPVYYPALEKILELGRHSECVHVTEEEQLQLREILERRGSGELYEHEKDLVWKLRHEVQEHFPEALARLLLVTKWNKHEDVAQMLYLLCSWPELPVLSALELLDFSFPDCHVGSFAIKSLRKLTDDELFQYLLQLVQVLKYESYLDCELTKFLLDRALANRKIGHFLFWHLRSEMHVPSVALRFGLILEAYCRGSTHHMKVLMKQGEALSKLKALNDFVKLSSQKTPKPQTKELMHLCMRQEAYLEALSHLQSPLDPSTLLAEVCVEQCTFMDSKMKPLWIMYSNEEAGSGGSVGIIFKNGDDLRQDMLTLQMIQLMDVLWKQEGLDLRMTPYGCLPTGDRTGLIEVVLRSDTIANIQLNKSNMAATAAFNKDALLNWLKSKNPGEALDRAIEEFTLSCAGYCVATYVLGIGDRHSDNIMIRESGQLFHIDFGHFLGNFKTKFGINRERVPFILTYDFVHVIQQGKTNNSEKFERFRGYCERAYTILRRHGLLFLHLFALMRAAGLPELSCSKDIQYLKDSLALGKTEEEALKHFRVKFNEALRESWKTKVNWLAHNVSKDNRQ
Chain of PI3Kδ (P27986 whole entry partner, canonical isoform): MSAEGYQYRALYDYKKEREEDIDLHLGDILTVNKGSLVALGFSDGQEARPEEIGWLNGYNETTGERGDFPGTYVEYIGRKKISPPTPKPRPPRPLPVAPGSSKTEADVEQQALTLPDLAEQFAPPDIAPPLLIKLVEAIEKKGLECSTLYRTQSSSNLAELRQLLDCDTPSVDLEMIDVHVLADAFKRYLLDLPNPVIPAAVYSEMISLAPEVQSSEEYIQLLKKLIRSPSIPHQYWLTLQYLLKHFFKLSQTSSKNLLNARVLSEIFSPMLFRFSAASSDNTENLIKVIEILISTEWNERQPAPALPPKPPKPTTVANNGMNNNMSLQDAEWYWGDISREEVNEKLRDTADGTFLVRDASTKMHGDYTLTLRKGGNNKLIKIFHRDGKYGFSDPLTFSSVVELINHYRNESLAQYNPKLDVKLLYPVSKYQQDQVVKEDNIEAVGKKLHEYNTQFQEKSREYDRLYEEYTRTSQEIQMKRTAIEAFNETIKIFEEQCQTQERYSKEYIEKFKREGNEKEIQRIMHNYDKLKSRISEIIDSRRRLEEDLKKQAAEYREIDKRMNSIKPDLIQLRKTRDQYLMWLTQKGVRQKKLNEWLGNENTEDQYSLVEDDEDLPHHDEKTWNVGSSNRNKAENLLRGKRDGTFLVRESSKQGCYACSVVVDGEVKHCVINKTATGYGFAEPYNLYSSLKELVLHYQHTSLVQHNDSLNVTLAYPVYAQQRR

The assay concerns the target PI3Kδ (Homo sapiens (Human), UniProt O00329). Briefly: PI3K Enzyme Assay (Example A2), [γ-33P]ATP filter plate. It is filed as biochemical. How it is done: Example A2: PI3K Enzyme Assay
Lipid kinase substrate, phosphoinositol-4,5-bisphosphate (PIP2), are purchased from Echelon Biosciences (Salt Lake City, Utah). PI3K isoforms α, β, δ and γ are purchased from Millipore (Bedford, Mass.). ATP, MgCl2, DTT, EDTA, MOPS and CHAPS are purchased from Sigma-Aldrich (St. Louis, Mo.).
The kinase reaction are conducted in clear-bottom 96-well plate from Thermo Fisher Scientific in a final volume of 24 μL. Inhibitors are first diluted serially in DMSO and added to the plate wells before the addition of other reaction components. The final concentration of DMSO in the assay is 0.5%. The PI3K assays are carried out at room temperature in 20 mM MOPS, pH 6.7, 10 mM MgCl2, 5 mM DTT and CHAPS 0.03%. The reaction mixture is prepared containing 50 µM PIP2, kinase and varying concentration of inhibitors. Reactions are initiated by the addition of ATP containing 2.2 μCi [γ-^33P]ATP to a final concentration of 1000 μM. The final concentration of PI3K isoforms α, β, δ and γ in the assay were 1.3, 9.4, 2.9 and 10.8 nM, respectively. Reactions are incubated for 180 minutes and terminated by the addition of 100 μL of 1 M potassium phosphate pH 8.0, 30 mM EDTA quench buffer. A 100 μL aliquot of the reaction solution are then transferred to 96-well Millipore MultiScreen IP […] PVDF filter plate (The filter plate is prewetted with 200 μL 100% ethanol, distilled water, and 1 M potassium phosphate pH 8.0, respectively). The filter plate is aspirated on a Millipore Manifold under vacuum and washed with 18×200 μL wash buffer containing 1 M potassium phosphate pH 8.0 and 1 mM ATP. After drying by aspiration and blotting, the plate is air dried in an incubator at 37° C. overnight. Packard TopCount adapter (Millipore) is then attached to the plate followed with addition of 120 μL Microscint 20 scintillation cocktail (Perkin Elmer) in each well. After the plate sealing, the radioactivity of the product is determined by scintillation counting on Topcount (Perkin-Elmer). IC50 determination is performed by fitting the curve of percent control activity versus the log of the inhibitor concentration using the GraphPad Prism 3.0 software.
The term IC50 denotes the concentration that inhibits the measured activity by half. Low values mean higher potency, high ones lower potency. Regarding `Cc1nn(C(C)c2cc(Cl)c(C#N)c3c2O[C@@H](C)CN(C2CN(CCO)C2)C3)c2ncnc(N)c12` (stereo partly drawn) [Example 56, (2S)-9-[1-(4-Amino-3-methyl-1H-pyrazolo[3,4-d]pyrimidin-1-yl)ethyl]-7-chloro-4-[1-(2-hydroxyethyl)azetidin-3-yl]-2-methyl-2,3,4,5-tetrahydro-1,4-benzoxazepine-6-carbonitrile], the IC50 was ≤ 100 nM. For `CCC(=O)N1CC(N2CCOc3c(C(C)n4nc(C)c5c(N)ncnc54)cc(Cl)c(C#N)c3C2)C1` (stereo not drawn) [Example 89, 9-[1-(4-amino-3-methyl-1H-pyrazolo[3,4-d]pyrimidin-1-yl)ethyl]-7-chloro-4-(1-propionylazetidin-3-yl)-2,3,4,5-tetrahydro-1,4-benzoxazepine-6-carbonitrile] the value was ≤ 100 nM.

With `CNC(=O)C1CC(N2Cc3c(C#N)c(Cl)cc(C(C)n4nc(C)c5c(N)ncnc54)c3OC(C)C2)C1` (single isomer, unassigned) [Example 115, 3-[9-[1-(4-amino-3-methyl-1H-pyrazolo[3,4-d]pyrimidin-1-yl)ethyl]-7-chloro-6-cyano-2-methyl-2,3-dihydro-1,4-benzoxazepin-4(5H)-yl]-N-methylcyclobutanecarboxamide], the IC50 is ≤ 100 nM. For `CC(=O)N1CC(N2Cc3c(C#N)c(Cl)cc(C(C)n4nc(C)c5c(N)ncnc54)c3OC(C)C2)C1` (single isomer, unassigned) [Example 48, 4-(1-Acetylazetidin-3-yl)-9-[1-(4-amino-3-methyl-1H-pyrazolo[3,4-d]pyrimidin-1-yl)ethyl]-7-chloro-2-methyl-2,3,4,5-tetrahydro-1,4-benzoxazepine-6-carbonitrile] the value was 100 to 500 nM.

For `Cc1nn(C(C)c2cc(Cl)c(F)c3c2OC(C)CN(S(C)(=O)=O)C3)c2ncnc(N)c12` (single isomer, unassigned) [Example 39, 1-{1-[7-Chloro-6-fluoro-2-methyl-4-(methylsulfonyl)-2,3,4,5-tetrahydro-1,4-benzoxazepin-9-yl]ethyl}-3-methyl-1H-pyrazolo[3,4-d]pyrimidin-4-amine], the IC50 was > 800 nM. For `COCCN1Cc2c(C#N)c(Cl)cc(C(C)n3nc(C)c4c(N)ncnc43)c2OC(C)C1` (single isomer, unassigned) [Example 112, 9-[1-(4-amino-3-methyl-1H-pyrazolo[3,4-d]pyrimidin-1-yl)ethyl]-7-chloro-4-(2-methoxyethyl)-2-methyl-2,3,4,5-tetrahydro-1,4-benzoxazepine-6-carbonitrile] the value was ≤ 100 nM; for `Cc1nn(C(C)c2cc(Cl)c(C#N)c3c2OC(C)CN(Cc2cccnc2)C3)c2ncnc(N)c12` (single isomer, unassigned) [Example 59, 9-[1-(4-Amino-3-methyl-1H-pyrazolo[3,4-d]pyrimidin-1-yl)ethyl]-7-chloro-2-methyl-4-(pyridin-3-ylmethyl)-2,3,4,5-tetrahydro-1,4-benzoxazepine-6-carbonitrile], ≤ 100 nM. For the compound `CCC(=O)N1CC(N2Cc3c(C#N)c(Cl)cc(C(C)n4nc(C)c5c(N)ncnc54)c3OC(C)C2)C1` (single isomer, unassigned) [Example 95, 9-[1-(4-amino-3-methyl-1H-pyrazolo[3,4-d]pyrimidin-1-yl)ethyl]-7-chloro-2-methyl-4-(1-propionylazetidin-3-yl)-2,3,4,5-tetrahydro-1,4-benzoxazepine-6-carbonitrile], the IC50 is ≤ 100 nM. For `CC(=O)N1CC(N2Cc3c(F)c(Cl)cc(C(C)n4nc(C)c5c(N)ncnc54)c3OC(C)C2)C1` (single isomer, unassigned) [Example 33, 1-{1-[4-(1-Acetylazetidin-3-yl)-7-chloro-6-fluoro-2-methyl-2,3,4,5-tetrahydro-1,4-benzoxazepin-9-yl]ethyl}-3-methyl-1H-pyrazolo[3,4-d]pyrimidin-4-amine] the value was 100 to 500 nM; for `Cc1nn(C(C)c2cc(Cl)c(F)c3c2OC(C)CN(C[C@@H](C)O)C3)c2ncnc(N)c12` (single isomer, unassigned) [Example 78], ≤ 100 nM. For `CNC(=O)C1CC(N2Cc3c(C#N)c(Cl)cc(C(C)n4nc(C)c5c(N)ncnc54)c3OC(C)C2)C1` (single isomer, unassigned) [Example 113, 3-[9-[1-(4-amino-3-methyl-1H-pyrazolo[3,4-d]pyrimidin-1-yl)ethyl]-7-chloro-6-cyano-2-methyl-2,3-dihydro-1,4-benzoxazepin-4(5H)-yl]-N-methylcyclobutanecarboxamide] the value was ≤ 100 nM. For `Cc1nn(C(C)c2cc(Cl)c(C#N)c3c2OC(C)CN(CC(N)=O)C3)c2ncnc(N)c12` (single isomer, unassigned) [Example 109, 2-[9-[1-(4-amino-3-methyl-1H-pyrazolo[3,4-d]pyrimidin-1-yl)ethyl]-7-chloro-6-cyano-2-methyl-2,3-dihydro-1,4-benzoxazepin-4(5H)-yl]acetamide] the value was ≤ 100 nM; for `Cc1nn(C(C)c2cc(Cl)c(C#N)c3c2OC(C)CN(C2CN(CC(N)=O)C2)C3)c2ncnc(N)c12` (single isomer, unassigned) [Example 53, 2-{3-[9-[1-(4-Amino-3-methyl-1H-pyrazolo[3,4-d]pyrimidin-1-yl)ethyl]-7-chloro-6-cyano-2-methyl-2,3-dihydro-1,4-benzoxazepin-4(5H)-yl]azetidin-1-yl}acetamide], ≤ 100 nM. As for `COCCN1Cc2c(C#N)c(Cl)cc(C(C)n3nc(C)c4c(N)ncnc43)c2OC(C)C1` (single isomer, unassigned) [Example 111, 9-[1-(4-amino-3-methyl-1H-pyrazolo[3,4-d]pyrimidin-1-yl)ethyl]-7-chloro-4-(2-methoxyethyl)-2-methyl-2,3,4,5-tetrahydro-1,4-benzoxazepine-6-carbonitrile], the IC50 was ≤ 100 nM. For `CCC(=O)N1CC(N2Cc3c(F)c(Cl)cc(C(C)n4nc(C)c5c(N)ncnc54)c3OC(C)C2)C1` (stereo not drawn) [Example 76, 1-{1-[7-chloro-6-fluoro-2-methyl-4-(1-propionylazetidin-3-yl)-2,3,4,5-tetrahydro-1,4-benzoxazepin-9-yl]ethyl}-3-methyl-1H-pyrazolo[3,4-d]pyrimidin-4-amine] the value was ≤ 100 nM; for `Cc1nn(C(C)c2cc(Cl)c(C#N)c3c2OC(C)CN(CC(C)(C)O)C3)c2ncnc(N)c12` (single isomer, unassigned) [Example 65, 9-[1-(4-Amino-3-methyl-1H-pyrazolo[3,4-d]pyrimidin-1-yl)ethyl]-7-chloro-4-(2-hydroxy-2-methylpropyl)-2-methyl-2,3,4,5-tetrahydro-1,4-benzoxazepine-6-carbonitrile], ≤ 100 nM. For `COC(=O)N1CC(N2Cc3c(F)c(Cl)cc(C(C)n4nc(C)c5c(N)ncnc54)c3OC(C)C2)C1` (single isomer, unassigned) [Example 80, methyl 3-[9-[1-(4-amino-3-methyl-1H-pyrazolo[3,4-d]pyrimidin-1-yl)ethyl]-7-chloro-6-fluoro-2-methyl-2,3-dihydro-1,4-benzoxazepin-4(5H)-yl]azetidine-1-carboxylate] the value was ≤ 100 nM. As to `Cc1nn(C(C)c2cc(Cl)c(F)c3c2OC(C)CN(S(C)(=O)=O)C3)c2ncnc(N)c12` (single isomer, unassigned) [Example 38, 1-{1-[7-Chloro-6-fluoro-2-methyl-4-(methylsulfonyl)-2,3,4,5-tetrahydro-1,4-benzoxazepin-9-yl]ethyl}-3-methyl-1H-pyrazolo[3,4-d]pyrimidin-4-amine], the IC50 was > 800 nM. As to `Cc1nn(C(C)c2cc(Cl)c(F)c3c2OC(C)CN(C2CN(S(C)(=O)=O)C2)C3)c2ncnc(N)c12` (stereo not drawn) [Example 75, 1-(1-{7-chloro-6-fluoro-2-methyl-4-[1-(methylsulfonyl)azetidin-3-yl]-2,3,4,5-tetrahydro-1,4-benzoxazepin-9-yl}ethyl)-3-methyl-1H-pyrazolo[3,4-d]pyrimidin-4-amine], the IC50 is ≤ 100 nM. For `Cc1nn(C(C)c2cc(Cl)c(C#N)c3c2OC(C)CN(C2CN(S(=O)(=O)N(C)C)C2)C3)c2ncnc(N)c12` (single isomer, unassigned) [Example 105, 3-[9-[1-(4-amino-3-methyl-1H-pyrazolo[3,4-d]pyrimidin-1-yl)ethyl]-7-chloro-6-cyano-2-methyl-2,3-dihydro-1,4-benzoxazepin-4(5H)-yl]-N,N-dimethylazetidine-1-sulfonamide] the value was ≤ 100 nM; for `CCC1CN(CCO)Cc2c(C#N)c(Cl)cc(C(C)n3nc(C)c4c(N)ncnc43)c2O1` (single isomer, unassigned) [Example 69, 9-[1-(4-Amino-3-methyl-1H-pyrazolo[3,4-d]pyrimidin-1-yl)ethyl]-7-chloro-2-ethyl-4-(2-hydroxyethyl)-2,3,4,5-tetrahydro-1,4-benzoxazepine-6-carbonitrile], ≤ 100 nM.

Source of the values: US9944646B2, “Bicyclic azaheterocyclobenzylamines as PI3K inhibitors” (Incyte Corporation, priority 2012, dated 2018).
